Assay results published in patent US8034377B2, “DHA esters and use thereof in treatment and prevention of cardiovascular disease” (Pierre Fabre Medicament, priority 2006, dated 2011).
Where two headings read alike, the source gives them in different places.

Biological target: T1, human Kv 1.5 channel (hKv 1.5) (Homo sapiens, UniProt P22460)
T1 construct: expressed in transfected cells
Assay: Ultrarapid potassium current (IKur), whole-cell patch-clamp in HEK 293-hKv 1.5 cells
Assay type: cell-based
Description: The cardiac action potential is the basic electrical unit of excitable cardiac cells and represents the activity of several types of ion channels responsible for the various phases of the action potential. Different types of action potentials correspond to different cardiac regions, thus allowing sequential and coordinated activity in these regions. For this reason, Kv 1.5 potassium channels, coded by the KCNA5 gene, are expressed only in auricle tissue and are responsible for the ultrarapid potassium current (IKur) which acts in the repolarization of the auricular action potential. This highly localized expression of Kv 1.5 is in fact a target of choice in the treatment of auricular fibrillation, a pathology in which changes in auricular action potentials are observed.
Thus, the effects of DHA and EPA on IKur were studied. For this purpose, the human isoform of the Kv 1.5 channel (hKv 1.5) was transfected in a stable manner in HEK 293 (human embryonic kidney) cells and the current resulting from the activity of these channels was studied using a whole-cell patch-clamp technique.
HEK 293-hKv 1.5 cells are grown under standard conditions (37° C., incubator at […] and 5% CO2) in Falcon dishes up to 80% confluence. They are then removed and cultured in 35 mm petri dishes containing the following culture medium: DMEM (Invitrogen); 10% fetal bovine serum (Invitrogen); a mixture of 100 U/ml penicillin, 100 μg/ml streptomycin and 0.25 mg/ml glutamine (Invitrogen); and 1.25 mg/ml of Geneticin® as a selective antibiotic.
IKur is studied using the whole-cell patch-clamp technique at ambient temperature (19-22° C.). The pipette medium contains: 125 mM K-aspartate, 20 mM KCl, 10 mM EGTA, 5 mM HEPES, 5 mM Mg-ATP, 1 mM MgCl2, pH 7.3 (KOH). The extracellular medium contains: 140 mM NaCl, 20 mM HEPES, 5 mM D(+)-glucose, 5 mM KCl, 2 mM CaCl2, 1 mM MgCl2, pH 7.4 (NaOH).
IKur is induced every 15 seconds by 300 ms, +60 mV depolarizing pulses from a −80 mV holding potential, followed by −50 mV repolarization. The amplitude of the current peak is established from the maximum current obtained during the first 100 ms of the depolarizing pulse. The amplitude of the current at the end of the pulse is determined during the last 20 ms of the depolarizing pulse.
DHA and EPA are supplied by Sigma. Stock solutions (10 mM) are prepared in ethanol and the final concentration of solvent is 0.25%.

T1 sequence (P22460 whole entry): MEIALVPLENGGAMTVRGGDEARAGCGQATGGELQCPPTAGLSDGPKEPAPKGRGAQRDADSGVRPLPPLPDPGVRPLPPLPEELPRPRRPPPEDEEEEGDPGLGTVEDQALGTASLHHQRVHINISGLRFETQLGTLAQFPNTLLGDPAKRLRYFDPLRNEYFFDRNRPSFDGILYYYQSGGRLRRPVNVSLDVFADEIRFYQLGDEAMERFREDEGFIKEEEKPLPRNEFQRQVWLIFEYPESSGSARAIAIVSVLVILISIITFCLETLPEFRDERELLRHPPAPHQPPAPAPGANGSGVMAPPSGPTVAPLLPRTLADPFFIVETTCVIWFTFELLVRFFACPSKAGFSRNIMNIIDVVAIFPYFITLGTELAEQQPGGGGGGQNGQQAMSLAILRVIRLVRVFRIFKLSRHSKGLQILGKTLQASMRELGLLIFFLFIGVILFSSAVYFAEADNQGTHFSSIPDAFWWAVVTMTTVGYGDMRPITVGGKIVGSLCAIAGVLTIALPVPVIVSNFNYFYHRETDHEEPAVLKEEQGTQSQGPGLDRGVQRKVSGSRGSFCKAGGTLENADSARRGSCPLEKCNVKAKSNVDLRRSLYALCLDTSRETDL

inhibition at 1 µM (1 μM, HEK 293-hKv 1.5, +60 mV pulse, max current in first 100 ms, read-out: Percent inhibition of Peak IKur, Mean) | inhibition at 1 µM (1 μM, HEK 293-hKv 1.5, last 20 ms of 300 ms depolarizing pulse, read-out: Percent inhibition of End of pulse IKur, Mean) | inhibition at 3.2 µM (3.2 μM, HEK 293-hKv 1.5, +60 mV pulse, max current in first 100 ms, read-out: Percent inhibition of Peak IKur, Mean) | inhibition at 3.2 µM (3.2 μM, HEK 293-hKv 1.5, last 20 ms of 300 ms depolarizing pulse, read-out: Percent inhibition of End of pulse IKur, Mean) | inhibition at 5.6 µM (HEK 293-hKv 1.5, +60 mV pulse, max current in first 100 ms, read-out: Percent inhibition of Peak IKur, Mean) | inhibition at 5.6 µM (HEK 293-hKv 1.5, last 20 ms of 300 ms depolarizing pulse, read-out: Percent inhibition of End of pulse IKur, Mean) | inhibition at 10 µM (10 μM, HEK 293-hKv 1.5, +60 mV pulse, max current in first 100 ms, read-out: Percent inhibition of Peak IKur, Mean) | inhibition at 10 µM (10 μM, HEK 293-hKv 1.5, last 20 ms of 300 ms depolarizing pulse, read-out: Percent inhibition of End of pulse IKur, Mean) | inhibition at 25 µM (25 μM, HEK 293-hKv 1.5, +60 mV pulse, max current in first 100 ms, read-out: Percent inhibition of Peak IKur, Mean) | inhibition at 25 µM (25 μM, HEK 293-hKv 1.5, last 20 ms of 300 ms depolarizing pulse, read-out: Percent inhibition of End of pulse IKur, Mean) | Percent inhibition of Peak IKur, Mean (1 μM, HEK 293-hKv 1.5, +60 mV pulse, max current in first 100 ms) | Percent inhibition of End of pulse IKur, Mean (1 μM, HEK 293-hKv 1.5, last 20 ms of 300 ms depolarizing pulse) | Percent inhibition of Peak IKur, Mean (3.2 μM, HEK 293-hKv 1.5, +60 mV pulse, max current in first 100 ms) | Percent inhibition of End of pulse IKur, Mean (3.2 μM, HEK 293-hKv 1.5, last 20 ms of 300 ms depolarizing pulse) | Percent inhibition of Peak IKur, Mean (10 μM, HEK 293-hKv 1.5, +60 mV pulse, max current in first 100 ms) | Percent inhibition of End of pulse IKur, Mean (10 μM, HEK 293-hKv 1.5, last 20 ms of 300 ms depolarizing pulse) | Percent inhibition of Peak IKur, Mean (25 μM, HEK 293-hKv 1.5, +60 mV pulse, max current in first 100 ms) | Percent inhibition of End of pulse IKur, Mean (25 μM, HEK 293-hKv 1.5, last 20 ms of 300 ms depolarizing pulse) | SMILES
8.2% | 10.1% | 10.9% | 14.5% | 15.4% | 33.7% | 22.6% | 78% | 58.1 ± 13.6% | 86.5 ± 3.4% | – | – | – | – | – | – | – | – | CC/C=C\C/C=C\C/C=C\C/C=C\C/C=C\C/C=C\CCC(=O)O [DHA, docosahexaenoic acid]
– | – | – | – | – | – | – | – | – | – | 14.6% | 14.9% | 16.1% | 19.9% | 17.5±6.4% | 36.6% | 5.4% | 61.6±7.3% | CC/C=C\C/C=C\C/C=C\C/C=C\C/C=C\CCCC(=O)O [EPA]
